According to ChEMBL document CHEMBL1201862, “PubChem BioAssay data set” (2004):
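Protocol summary: plate cells (96-well), add compound at 5 concentrations, incubate 48 h, interpolate endpoints linearly. The concentration for 50% growth inhibition is given as GI50.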 Calls of active or inactive are those of the source. Rule as the data show it: active = GI50 up to about 1.1 µM and inactive = higher.

Assays:
Experiment in all cases: DTP human tumour cell line panel, 48 h
A498 = test system: A498
ACHN = test system: ACHN
HCC 2998 = test system: HCC 2998
HOP-62 = test system: HOP-62
K562 = test system: K562
Malme-3M = test system: Malme-3M
NCI-H23 = test system: NCI-H23
OVCAR-5 = test system: OVCAR-5
SF-268 = test system: SF-268
SF-539 = test system: SF-539
SW-620 = test system: SW-620
CAKI-1 = test system: CAKI-1
MCF7 = test system: MCF7
MDA-MB-435 = test system: MDA-MB-435
NCI/ADR-RES = test system: NCI/ADR-RES
PC-3 = test system: PC-3
SNB-75 = test system: SNB-75
SR = test system: SR
Hs-578T = test system: Hs-578T

Measured: GI50

CC1=N/C(=C\c2ccc([N+](=O)[O-])cc2)C(=O)O1
inactive: A498 > 100 µM | ACHN > 100 µM | HCC 2998 > 100 µM | HOP-62 > 100 µM | K562 > 100 µM | Malme-3M > 100 µM | NCI-H23 > 100 µM | OVCAR-5 > 100 µM | SF-268 > 100 µM | SF-539 > 100 µM | SW-620 > 100 µM

C[C@]12CC[C@H]3[C@@H](CCC4=CC(=O)C=C[C@@]43O)[C@@H]1CCC2=O
inactive: A498 > 100 µM | ACHN > 100 µM | CAKI-1 > 100 µM | HCC 2998 > 100 µM | HOP-62 > 100 µM | K562 83.9 µM | MCF7 > 100 µM | MDA-MB-435 > 100 µM | NCI-H23 51.5 µM | NCI/ADR-RES 78.3 µM | OVCAR-5 > 100 µM | PC-3 > 100 µM | SF-539 > 100 µM | SNB-75 > 100 µM | SR 74.3 µM | SW-620 > 100 µM

COc1ccc2c(n1)Sc1nc3ccccc3nc1N2
inactive: A498 > 100 µM | ACHN 23.2 µM | CAKI-1 88.3 µM | HOP-62 16.1 µM | Hs-578T 27.9 µM | K562 30.3 µM | MCF7 65.2 µM | MDA-MB-435 55.1 µM | Malme-3M 29 µM | NCI-H23 17.9 µM | NCI/ADR-RES 24.7 µM | OVCAR-5 56.1 µM | PC-3 89.5 µM | SF-268 58.5 µM | SF-539 14.4 µM | SNB-75 25.5 µM | SW-620 > 100 µM

Cc1cccc2c(=O)c3cccc([C@H](C)C(=O)O)c3oc12
inactive: A498 > 100 µM | ACHN > 100 µM | CAKI-1 > 100 µM | HCC 2998 > 100 µM | HOP-62 > 100 µM | Hs-578T > 100 µM | K562 > 100 µM | MDA-MB-435 > 100 µM | Malme-3M > 100 µM | NCI-H23 > 100 µM | NCI/ADR-RES > 100 µM | PC-3 > 100 µM | SF-268 > 100 µM | SF-539 > 100 µM | SR > 100 µM | SW-620 > 100 µM

O=C(COC(=O)c1cccc2c(=O)c3ccccc3[nH]c12)Nc1ccc(C(=O)O)cc1
inactive: A498 > 100 µM | ACHN > 100 µM | CAKI-1 > 100 µM | HCC 2998 > 100 µM | HOP-62 > 100 µM | K562 70.6 µM | Malme-3M > 100 µM | NCI-H23 > 100 µM | SF-268 > 100 µM | SF-539 > 100 µM | SNB-75 42.5 µM | SR 30.8 µM | SW-620 > 100 µM

CCOc1ccccc1NC(=O)C1=C(C)NC(C)=C(C(=O)Nc2ccccc2OCC)C1c1ccc(NC(C)=O)cc1
inactive: A498 23.8 µM | ACHN 22.4 µM | CAKI-1 17.2 µM | HCC 2998 12.3 µM | HOP-62 9.66 µM | K562 37.1 µM | Malme-3M 33.7 µM | NCI-H23 31 µM | OVCAR-5 33.6 µM | SF-268 56.6 µM | SF-539 41.7 µM | SNB-75 9.75 µM | SW-620 35.6 µM

O=C(Nc1ccccc1)N1C(c2ccccc2)=N[C@@H](c2ccccc2)[C@@H]1c1ccccc1
inactive: A498 18.3 µM | ACHN 15.3 µM | CAKI-1 21.5 µM | HCC 2998 18.5 µM | HOP-62 20.6 µM | K562 17.7 µM | Malme-3M 17.5 µM | NCI-H23 23.7 µM | OVCAR-5 19.3 µM | SF-268 22.3 µM | SF-539 18.6 µM | SNB-75 22.1 µM | SR 14.8 µM | SW-620 18.8 µM

C#CC(O)(c1nc2ccccc2s1)c1nc2ccccc2s1
inactive: A498 16.9 µM | ACHN 23 µM | CAKI-1 23.5 µM | HOP-62 26.2 µM | Hs-578T 36.4 µM | K562 45.7 µM | MCF7 22.2 µM | MDA-MB-435 23.1 µM | Malme-3M 27 µM | NCI-H23 20.3 µM | NCI/ADR-RES 26.2 µM | OVCAR-5 23.6 µM | PC-3 19 µM | SF-268 28.5 µM | SF-539 17.4 µM | SW-620 33.7 µM

COC(=O)CSc1nc2[nH]c(SC)c(C(N)=O)c2c(=O)n1-c1ccccc1
inactive: CAKI-1 > 10 µM | HCC 2998 > 10 µM | HOP-62 > 10 µM | K562 > 10 µM | MCF7 > 10 µM | MDA-MB-435 > 10 µM | Malme-3M > 10 µM | NCI-H23 > 10 µM | PC-3 > 10 µM | SF-268 > 10 µM | SNB-75 > 10 µM | SR > 10 µM | SW-620 > 10 µM

COc1ccc(Nc2nc(NNC(=O)Cc3ccccc3)nc(NNC(=O)c3ccncc3)n2)cc1
inactive: A498 > 10 µM | ACHN > 10 µM | CAKI-1 > 10 µM | HCC 2998 > 10 µM | HOP-62 > 10 µM | K562 > 10 µM | MCF7 > 10 µM | MDA-MB-435 > 10 µM | Malme-3M > 10 µM | NCI-H23 > 10 µM | NCI/ADR-RES > 10 µM | OVCAR-5 > 10 µM | SF-268 > 10 µM | SF-539 > 10 µM | SNB-75 > 10 µM | SR > 10 µM | SW-620 > 10 µM

CCOC(=O)NC(=O)c1cn(CCN2CCN(C(=O)CCCCCCCCCCC(=O)N3CCN(CCn4cc(C(=O)NC(=O)OCC)c(=O)[nH]c4=O)CC3)CC2)c(=O)[nH]c1=O
inactive: A498 > 100 µM | ACHN > 100 µM | CAKI-1 > 100 µM | HCC 2998 > 100 µM | HOP-62 > 100 µM | K562 > 100 µM | Malme-3M > 100 µM | NCI-H23 > 100 µM | OVCAR-5 51.6 µM | SF-268 > 100 µM | SF-539 > 100 µM | SNB-75 > 100 µM | SR > 100 µM | SW-620 > 100 µM

C1=C2C3=[N+](CCCCC3)CC2Cc2ccsc21 (configuration not stated)
inactive: A498 39.8 µM | ACHN > 100 µM | CAKI-1 > 100 µM | HOP-62 > 100 µM | Hs-578T > 100 µM | K562 > 100 µM | MCF7 50.1 µM | MDA-MB-435 60.3 µM | Malme-3M 39.9 µM | NCI-H23 49.9 µM | NCI/ADR-RES > 100 µM | OVCAR-5 > 100 µM | PC-3 39.5 µM | SF-268 76.2 µM | SNB-75 29.9 µM | SW-620 93.5 µM

Cc1ccc(S(=O)(=O)N/N=C/c2oc(-c3cccc([N+](=O)[O-])c3)c(-c3cccc([N+](=O)[O-])c3)c2[N+](=O)[O-])cc1
inactive: A498 > 100 µM | ACHN 45.8 µM | CAKI-1 > 100 µM | HCC 2998 > 100 µM | K562 24.9 µM | Malme-3M > 100 µM | NCI-H23 42.4 µM | OVCAR-5 > 100 µM | SF-268 21.2 µM | SF-539 > 100 µM | SNB-75 92.5 µM | SR 17.6 µM | SW-620 37.8 µM

O=[N+]([O-])/C(Cl)=C(\NCCN/C(C(Cl)=C(Cl)Cl)=C(/Cl)[N+](=O)[O-])C(Cl)=C(Cl)Cl
inactive: A498 48.1 µM | ACHN > 100 µM | CAKI-1 > 100 µM | HCC 2998 83.6 µM | HOP-62 71.8 µM | K562 27.8 µM | MCF7 47.6 µM | MDA-MB-435 87.1 µM | Malme-3M 46.5 µM | NCI-H23 28.7 µM | NCI/ADR-RES 89.7 µM | OVCAR-5 > 100 µM | PC-3 43.6 µM | SF-268 40.8 µM | SF-539 > 100 µM | SNB-75 35.5 µM | SR 17.1 µM | SW-620 47.5 µM

Cc1ccc(/C=N/Nc2cnccn2)s1
inactive: ACHN > 100 µM | CAKI-1 > 100 µM | HCC 2998 > 100 µM | HOP-62 > 100 µM | Hs-578T > 100 µM | K562 65.2 µM | MCF7 17.4 µM | MDA-MB-435 > 100 µM | Malme-3M > 100 µM | NCI-H23 > 100 µM | NCI/ADR-RES > 100 µM | OVCAR-5 > 100 µM | PC-3 > 100 µM | SF-268 > 100 µM | SF-539 > 100 µM | SNB-75 > 100 µM | SW-620 > 100 µM

C#C[C@@H](OC(=O)c1ccc([N+](=O)[O-])cc1)[C@@H]1C[C@H]2O[C@@H]([C@H](C/C=C/CC)OC(=O)c3ccc([N+](=O)[O-])cc3)C[C@H]2O1
inactive: A498 > 100 µM | ACHN > 100 µM | CAKI-1 > 100 µM | HCC 2998 > 100 µM | HOP-62 > 100 µM | Hs-578T > 100 µM | K562 > 100 µM | MDA-MB-435 > 100 µM | Malme-3M > 100 µM | NCI-H23 > 100 µM | NCI/ADR-RES > 100 µM | OVCAR-5 > 100 µM | PC-3 > 100 µM | SF-268 > 100 µM | SF-539 > 100 µM | SNB-75 > 100 µM | SW-620 > 100 µM

CN1C2CCC1CN(CCOC(c1ccc(F)cc1)c1ccc(F)cc1)C2
inactive: A498 24.8 µM | ACHN 40.6 µM | CAKI-1 45.8 µM | HOP-62 21.4 µM | Hs-578T 42.7 µM | K562 20 µM | MDA-MB-435 23.4 µM | Malme-3M 17.9 µM | NCI-H23 69.7 µM | NCI/ADR-RES 35.4 µM | OVCAR-5 56.6 µM | PC-3 28.6 µM | SF-268 46.7 µM | SF-539 16.6 µM | SNB-75 26.5 µM | SW-620 23.6 µM
